# Values quoted from earlier work in patent US11701338B2, “Use of gTso thal in manufacturing medicament for promotion of MS-275 to cross blood-brain barrier” (Northwest Institute of Plateau Biology, Chinese Academy of …, priority 2020, dated 2023).
# Details: after oral or intravenous administration
structure (smiles),measurement,value
Nc1ccccc1NC(=O)c1ccc(CNC(=O)OCc2cccnc2)cc1 [MS-275],share of the dosage of MS-275 that crosses the BBB into the brain,around 15%
